# Measured values taken from patent US8273774B2, “Phenoxypyridinylamide compounds” (AstraZeneca AB, priority 2008, dated 2012).
# Target: recombinant Human Phosphodiesterase B2 (PDE4B2) (Homo sapiens, UniProt Q07343)
# Assay: Human Phosphodiesterase B2 Radiometric Assay
# Type: biochemical
# Conditions: 0.1 μg/mL recombinant PDE4B2; preincubated at 30 C for 30 min; [3H]cyclic AMP 8 nM, stopped after 20 min; yttrium silicate SPA beads; read-out: PDE4B2 pIC50 (converted)
# Procedure: Human Phosphodiesterase B2 Radiometric Assay
# The assay uses recombinant Human Phosphodiesterase B2 (PDE4B2) produced in house (PrAZL0163), stored at −20° C. This assay is based on the observation that 5′AMP, the product of the reaction catalysed by PDE4, binds preferentially to yttrium silicate SPA beads (Amersham Biosciences, UK) compared to the substrate, cAMP. Compounds at the appropriate concentration were preincubated at 30 C for 30 min with an assay buffer containing 50 mM HEPES (pH 7.5), 8.3 mM MgCl2, 1.7 mM EGTA, 0.01% (w/v) Brij®35 and 0.1 μg/mL recombinant PDE4B2. The reaction was started by the addition of [3H]cyclic AMP to give a final concentration of 8 nM, and was stopped 20 min after the addition of the substrate by the addition of yttrium silicate SPA beads containing 18 mM Zn SO4. Bound […] was measured using a Topcount NXT (Packard Bioscience, UK). pIC50 values (presented in Table 2) were determined using Xlfit3 curve fitting, using model 205.
# Sequence of recombinant Human Phosphodiesterase B2 (PDE4B2) (Q07343 1-564 isoform Q07343-2): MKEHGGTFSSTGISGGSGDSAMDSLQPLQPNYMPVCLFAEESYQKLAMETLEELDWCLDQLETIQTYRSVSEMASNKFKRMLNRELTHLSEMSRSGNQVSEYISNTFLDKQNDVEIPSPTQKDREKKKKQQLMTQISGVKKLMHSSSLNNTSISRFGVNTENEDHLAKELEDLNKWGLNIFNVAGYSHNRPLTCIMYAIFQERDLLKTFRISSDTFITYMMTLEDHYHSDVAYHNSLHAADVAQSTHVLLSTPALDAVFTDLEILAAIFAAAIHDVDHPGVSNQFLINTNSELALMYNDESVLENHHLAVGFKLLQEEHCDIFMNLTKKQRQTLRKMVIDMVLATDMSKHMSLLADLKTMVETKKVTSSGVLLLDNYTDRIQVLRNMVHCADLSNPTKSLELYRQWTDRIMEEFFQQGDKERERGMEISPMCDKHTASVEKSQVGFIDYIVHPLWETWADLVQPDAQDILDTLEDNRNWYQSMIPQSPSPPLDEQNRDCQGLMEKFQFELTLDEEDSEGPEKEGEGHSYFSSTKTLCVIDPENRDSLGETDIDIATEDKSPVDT
row,Structure (SMILES),IC50
1,"O=C(N[C@H]1CC[C@@H](NC(=O)c2cc(F)cnc2Oc2cccc(-c3ccc(O)cc3CN3CCSCC3)c2)CC1)c1cn2cc(F)ccc2n1 [Example 21, 6-fluoro-N-((1s,4s)-4-(5-fluoro-2-(4′-hydroxy-2′-(thiomorpholinomethyl)biphenyl-3-yloxy)nicotinamido)cyclohexyl)imidazo[1,2-a]pyridine-2-carboxamide]",0.0501 nM
2,"Cc1cc(C(=O)N[C@H]2CC[C@@H](NC(=O)c3cc(F)cnc3Oc3cccc(-c4ccc(O)cc4CN4CCSCC4)c3)CC2)nn1C [Example 22, N-((1s,4s)-4-(1,5-dimethyl-1H-pyrazole-3-carboxamido)cyclohexyl)-5-fluoro-2-(4′-hydroxy-2′-(thiomorpholinomethyl)biphenyl-3-yloxy)nicotinamide]",0.0398 nM
3,"Cc1nc(C(=O)N[C@H]2CC[C@@H](NC(=O)c3cc(F)cnc3Oc3cccc(-c4ccc(O)cc4CN4CCCCCC4)c3)CC2)cs1 [Example 23, N-((1s,4s)-4-(2-(2′-(azepan-1-ylmethyl)-4′-hydroxybiphenyl-3-yloxy)-5-fluoronicotinamido)cyclohexyl)-2-methylthiazole-4-carboxamide]",0.316 nM
4,"Cc1nc(C(=O)N[C@H]2CC[C@@H](NC(=O)c3cc(F)cnc3Oc3cccc(-c4ccc(O)cc4CN4C[C@@H](C)O[C@@H](C)C4)c3)CC2)cs1 [Example 24, N-((1s,4s)-4-(2-(2′-(((2S,6R)-2,6-dimethylmorpholino)methyl)-4′-hydroxybiphenyl-3-yloxy)-5-fluoronicotinamido)cyclohexyl)-2-methylthiazole-4-carboxamide]",0.1 nM
5,"Cc1nc(C(=O)N[C@H]2CC[C@@H](NC(=O)c3cc(F)cnc3Oc3cccc(-c4ccc(O)cc4CN4CCN(C(C)C)CC4)c3)CC2)cs1 [Example 25, N-((1s,4s)-4-(5-fluoro-2-(4′-hydroxy-2′-((4-isopropylpiperazin-1-yl)methyl)biphenyl-3-yloxy)nicotinamido)cyclohexyl)-2-methylthiazole-4-carboxamide]",3.16 nM
6,"Cc1nc(C(=O)N[C@H]2CC[C@@H](NC(=O)c3cc(F)cnc3Oc3cccc(-c4ccc(O)cc4CN(C)C(C)(C)C)c3)CC2)cs1 [Example 26, N-((1s,4s)-4-(2-(2′-((tert-butyl(methyl)amino)methyl)-4′-hydroxybiphenyl-3-yloxy)-5-fluoronicotinamido)cyclohexyl)-2-methylthiazole-4-carboxamide]",0.2 nM
7,"CN1CCCN(Cc2cc(O)ccc2-c2cccc(Oc3ncc(F)cc3C(=O)N[C@H]3CC[C@@H](NC(=O)c4ccc5ccccc5n4)CC3)c2)CC1 [Example 27, N-((1s,4s)-4-(5-fluoro-2-(4′-hydroxy-2′-((4-methyl-1,4-diazepan-1-yl)methyl)biphenyl-3-yloxy)nicotinamido)cyclohexyl)quinoline-2-carboxamide]",0.631 nM
8,"Cc1ccc(O)c(C(=O)N[C@H]2CC[C@@H](NC(=O)c3cc(F)cnc3Oc3cccc(-c4ccc(O)cc4CN4CCOCC4)c3)CC2)c1 [Example 28, 5-fluoro-2-(4′-hydroxy-2′-(morpholinomethyl)biphenyl-3-yloxy)-N-((1s,4s)-4-(2-hydroxy-5-methylbenzamido)cyclohexyl)nicotinamide]",0.0251 nM
9,"CC(=O)N1CCN(Cc2cc(O)ccc2-c2cccc(Oc3ncc(F)cc3C(=O)N[C@H]3CC[C@@H](NC(=O)c4csc(C)n4)CC3)c2)CC1 [Example 29, N-((1s,4s)-4-(2-(2′-((4-acetylpiperazin-1-yl)methyl)-4′-hydroxybiphenyl-3-yloxy)-5-fluoronicotinamido)cyclohexyl)-2-methylthiazole-4-carboxamide]",0.0398 nM
10,"Cc1nc(C(=O)N[C@H]2CC[C@@H](NC(=O)c3cc(F)cnc3Oc3cccc(-c4ccc(O)cc4CN(C)CC(=O)N(C)C)c3)CC2)cs1 [Example 30, N-((1s,4s)-4-(2-(2′-(((2-(dimethylamino)-2-oxoethyl)(methyl)amino)methyl)-4′-hydroxybiphenyl-3-yloxy)-5-fluoronicotinamido)cyclohexyl)-2-methylthiazole-4-carboxamide]",0.0398 nM
11,"O=C(N[C@H]1CC[C@@H](NC(=O)c2cc(F)cnc2Oc2cccc(-c3ccc(O)cc3CN3CCOCC3)c2)CC1)c1ccc(O)cc1 [Example 31, 5-fluoro-2-(4′-hydroxy-2′-(morpholinomethyl)biphenyl-3-yloxy)-N-((1s,4s)-4-(4-hydroxybenzamido)cyclohexyl)nicotinamide]",0.501 nM
12,"O=C(N[C@H]1CC[C@@H](NC(=O)c2cc(F)cnc2Oc2cccc(-c3ccc(O)cc3CN3CCOCC3)c2)CC1)c1cccc(O)c1 [Example 32, 5-fluoro-2-(4′-hydroxy-2′-(morpholinomethyl)biphenyl-3-yloxy)-N-((1s,4s)-4-(3-hydroxybenzamido)cyclohexyl)nicotinamide]",0.316 nM

# The remaining lines, values ahead:
row,IC50,Structure (SMILES)
1,0.631 nM,"Cc1ncsc1C(=O)N[C@H]1CC[C@@H](NC(=O)c2cc(F)cnc2Oc2cccc(-c3ccc(O)cc3CN3CCOCC3)c2)CC1 [Example 33, N-((1s,4s)-4-(5-fluoro-2-(4′-hydroxy-2′-(morpholinomethyl)biphenyl-3-yloxy)nicotinamido)cyclohexyl)-4-methylthiazole-5-carboxamide]"
2,0.0251 nM,"Cc1nc(C(=O)N[C@H]2CC[C@@H](NC(=O)c3cc(F)cnc3Oc3cccc(-c4ccc(O)cc4CN4CCOCC4)c3)CC2)cs1 [Example 34, N-((1s,4s)-4-(5-fluoro-2-(4′-hydroxy-2′-(morpholinomethyl)biphenyl-3-yloxy)nicotinamido)cyclohexyl)-2-methylthiazole-4-carboxamide]"
3,0.1 nM,"O=C(N[C@H]1CC[C@@H](NC(=O)c2cc(F)cnc2Oc2cccc(-c3ccc(O)cc3CN3CCOCC3)c2)CC1)c1csc(C(F)(F)F)n1 [Example 36, N-((1s,4s)-4-(5-fluoro-2-(4′-hydroxy-2′-(morpholinomethyl)biphenyl-3-yloxy)nicotinamido)cyclohexyl)-2-(trifluoromethyl)thiazole-4-carboxamide]"
4,0.2 nM,"CC(C)c1ncc(C(=O)N[C@H]2CC[C@@H](NC(=O)c3cc(F)cnc3Oc3cccc(-c4ccc(O)cc4CN4CCOCC4)c3)CC2)s1 [Example 37, N-((1s,4s)-4-(5-fluoro-2-(4′-hydroxy-2′-(morpholinomethyl)biphenyl-3-yloxy)nicotinamido)cyclohexyl)-2-isopropylthiazole-5-carboxamide]"
5,0.0398 nM,"O=C(N[C@H]1CC[C@@H](NC(=O)c2cc(F)cnc2Oc2cccc(-c3ccc(O)cc3CN3CCOCC3)c2)CC1)c1ccccc1O [Example 38, 5-fluoro-2-(4′-hydroxy-2′-(morpholinomethyl)biphenyl-3-yloxy)-N-((1s,4s)-4-(2-hydroxybenzamido)cyclohexyl)nicotinamide]"
6,0.02 nM,"CC(C)c1nc(C(=O)N[C@H]2CC[C@@H](NC(=O)c3cc(F)cnc3Oc3cccc(-c4ccc(O)cc4CN4CCOCC4)c3)CC2)cs1 [Example 39, N-((1s,4s)-4-(5-fluoro-2-(4′-hydroxy-2′-(morpholinomethyl)biphenyl-3-yloxy)nicotinamido)cyclohexyl)-2-isopropylthiazole-4-carboxamide]"
7,0.794 nM,"O=C(N[C@H]1CC[C@@H](NC(=O)c2cc(F)cnc2Oc2cccc(-c3ccc(O)cc3CN3CCOCC3)c2)CC1)c1cccc(O)n1 [Example 40, N-((1s,4s)-4-(5-fluoro-2-(4′-hydroxy-2′-(morpholinomethyl)biphenyl-3-yloxy)nicotinamido)cyclohexyl)-6-hydroxypicolinamide]"
8,0.1 nM,"O=C(N[C@H]1CC[C@@H](NC(=O)c2cc(F)cnc2Oc2cccc(-c3ccc(O)cc3CN3CCOCC3)c2)CC1)c1cc(O)c2ccccc2n1 [Example 41, N-((1s,4s)-4-(5-fluoro-2-(4′-hydroxy-2′-(morpholinomethyl)biphenyl-3-yloxy)nicotinamido)cyclohexyl)-4-hydroxyquinoline-2-carboxamide]"
9,0.0501 nM,"O=C(N[C@H]1CC[C@@H](NC(=O)c2cc(F)cnc2Oc2cccc(-c3ccc(O)cc3CN3CCOCC3)c2)CC1)c1cc2ccccc2nc1O [Example 42, N-((1s,4s)-4-(5-fluoro-2-(4′-hydroxy-2′-(morpholinomethyl)biphenyl-3-yloxy)nicotinamido)cyclohexyl)-2-hydroxyquinoline-3-carboxamide]"
10,0.126 nM,"CN(C)Cc1cc(O)ccc1-c1cccc(Oc2ncc(F)cc2C(=O)N[C@H]2CC[C@@H](NC(=O)c3csc(C(C)(C)C)n3)CC2)c1 [Example 43, 2-tert-butyl-N-((1s,4s)-4-(2-(2′-((dimethylamino)methyl)-4′-hydroxybiphenyl-3-yloxy)-5-fluoronicotinamido)cyclohexyl)thiazole-4-carboxamide]"
11,0.1 nM,"CN(C)Cc1cc(O)ccc1-c1cccc(Oc2ncc(F)cc2C(=O)N[C@H]2CC[C@@H](NC(=O)c3nc4ccccc4s3)CC2)c1 [Example 44, N-((1s,4s)-4-(2-(2′-((dimethylamino)methyl)-4′-hydroxybiphenyl-3-yloxy)-5-fluoronicotinamido)cyclohexyl)benzo[d]thiazole-2-carboxamide]"
12,0.0158 nM,"Cc1csc(C(=O)N[C@H]2CC[C@@H](NC(=O)c3cc(F)cnc3Oc3cccc(-c4ccc(O)cc4CN4CCOCC4)c3)CC2)n1 [Example 45, N-((1s,4s)-4-(5-fluoro-2-(4′-hydroxy-2′-(morpholinomethyl)biphenyl-3-yloxy)nicotinamido)cyclohexyl)-4-methylthiazole-2-carboxamide]"
